Data published in publication PMC2655646, “A Conserved Mechanism for Control of Human and Mouse Embryonic Stem Cell Pluripotency and Differentiation by Shp2 Tyrosine Phosphatase” (PLoS ONE, 2009).
pIC50: −log10 of the molar value.

Experiments:
Shp1 = biological target: T1, Shp1 (Mus musculus, UniProt P29351); test: phosphatase inhibition assay with purified GST-PTP domain; type: biochemical
T1 construct: gene Ptpn6; GST-tagged PTP domain
T1 sequence (P29351 244-515 limits assumed): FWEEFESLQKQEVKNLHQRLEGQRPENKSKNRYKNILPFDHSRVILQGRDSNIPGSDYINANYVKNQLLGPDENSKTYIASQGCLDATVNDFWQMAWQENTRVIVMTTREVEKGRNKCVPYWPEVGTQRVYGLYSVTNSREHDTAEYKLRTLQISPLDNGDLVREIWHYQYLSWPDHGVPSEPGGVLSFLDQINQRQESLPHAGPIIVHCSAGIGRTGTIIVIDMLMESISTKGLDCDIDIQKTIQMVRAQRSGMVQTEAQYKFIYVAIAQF

Shp2 = biological target: T2, Shp2 (Mus musculus, UniProt P35235); test: pNPP phosphatase assay with purified GST-PTP domain, absorbance at […] nm; Ki also determined ([…]); type: biochemical
T2 construct: gene Ptpn11; GST-tagged PTP domain
T2 sequence (P35235 247-521 limits assumed): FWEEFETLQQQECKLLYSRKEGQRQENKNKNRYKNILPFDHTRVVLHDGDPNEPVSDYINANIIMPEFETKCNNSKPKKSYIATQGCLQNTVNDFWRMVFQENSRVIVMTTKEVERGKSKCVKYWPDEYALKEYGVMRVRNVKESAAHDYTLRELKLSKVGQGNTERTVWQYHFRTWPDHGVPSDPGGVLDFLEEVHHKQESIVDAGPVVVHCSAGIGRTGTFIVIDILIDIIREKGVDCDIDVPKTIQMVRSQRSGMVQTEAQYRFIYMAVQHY

O=C(O)c1cc(O)c(=O)c2c(O)c(O)ccc2c1 [DCA, 7-deshydroxypyrogallin-4-carboxylic acid]
pIC50 (Shp1): 5.64 | pIC50 (Shp2): 5.68
